The IC50 is the point on the concentration scale where inhibition reaches its midpoint.

Molecules are shown by their SMILES. Like-named read-outs stand apart in the source and are kept apart here.

Here are results for 17 molecules from patent US20150352108A1, “AMINO-PYRIMIDINE COMPOUNDS AS INHIBITORS OF TBK1 AND/OR IKK EPSILON” (Alzheimer's Institute of America, priority 2009, published 2015).

In one assay the target is T1, TBK1 (Homo sapiens, UniProt Q9UHD2).
T1 construct: His-tag; made in house; host or cells: Sf9 insect cells
T1 sequence (Q9UHD2 1-729): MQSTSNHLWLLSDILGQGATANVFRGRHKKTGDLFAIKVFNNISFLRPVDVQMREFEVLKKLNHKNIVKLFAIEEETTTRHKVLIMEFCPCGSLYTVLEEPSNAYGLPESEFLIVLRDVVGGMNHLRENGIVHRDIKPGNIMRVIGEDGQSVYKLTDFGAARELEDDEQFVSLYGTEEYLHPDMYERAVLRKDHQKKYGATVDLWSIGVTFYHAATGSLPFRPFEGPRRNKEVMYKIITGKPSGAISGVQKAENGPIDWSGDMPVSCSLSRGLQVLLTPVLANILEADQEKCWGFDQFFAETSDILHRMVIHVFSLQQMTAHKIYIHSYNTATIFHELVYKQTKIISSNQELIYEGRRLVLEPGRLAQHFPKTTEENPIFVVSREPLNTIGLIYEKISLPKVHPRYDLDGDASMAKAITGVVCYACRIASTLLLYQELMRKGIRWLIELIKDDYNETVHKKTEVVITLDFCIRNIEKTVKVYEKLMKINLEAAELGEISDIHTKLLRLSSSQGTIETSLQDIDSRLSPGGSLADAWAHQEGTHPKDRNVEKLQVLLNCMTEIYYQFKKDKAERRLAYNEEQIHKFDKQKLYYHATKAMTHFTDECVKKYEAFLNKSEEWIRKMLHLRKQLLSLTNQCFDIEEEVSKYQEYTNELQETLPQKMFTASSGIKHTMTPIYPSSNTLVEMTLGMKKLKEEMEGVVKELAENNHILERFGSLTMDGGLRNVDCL
The experiment in a line: In-vitro TBK1 kinase assay ([γ33]ATP filter-plate). Format: biochemical. Summed up: (§1)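 His-tagged IKKε and TBK1 from Sf9 cells were assayed with myelin basic protein or casein and [γ33]ATP at 2×Km ATP (32 μM for IKKε, 60 μM for TBK1). Enzyme was 0.1 or 0.015 μg/ml for IKKε and 0.1 or 0.02 μg/ml for TBK1 (normal/sensitized). Reactions ran 30-45 min, were filter-captured, scintillation-counted, and normalized to DMSO after background subtraction.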

In assay [1] the test system is IKKε-mediated phosphorylation of IRF3. The experiment in a line: In-situ phosphorylation of IRF3 (pIRF3 Ser396 ELISA) in HEK293T cells cotransfected with IRF3 and IKKε. The note with it: Homo sapiens, HEK-293T. Format: cell-based. Summed up:
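Cells for the IRF7 Western blots carried IRF7 and TBK1 plasmids, were seeded at 150,000/well, exposed to compound overnight and probed for pSer477/Ser479 IRF7. The ELISA readout used IRF3 + IKKε-cotransfected HEK293T at 20,000/well with 20 h treatment, quantifying pSer396 IRF3 relative to DMSO, plus a parallel CellTiter-Glo viability check.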
In general terms: In an ELISA, binding on a coated surface is turned into a signal by an enzyme label.

The target in a further assay is T2, IKKε (Homo sapiens, UniProt Q14164).
T2 construct: His-tag; made in house; host or cells: Sf9 insect cells
T2 sequence (Q14164 1-716): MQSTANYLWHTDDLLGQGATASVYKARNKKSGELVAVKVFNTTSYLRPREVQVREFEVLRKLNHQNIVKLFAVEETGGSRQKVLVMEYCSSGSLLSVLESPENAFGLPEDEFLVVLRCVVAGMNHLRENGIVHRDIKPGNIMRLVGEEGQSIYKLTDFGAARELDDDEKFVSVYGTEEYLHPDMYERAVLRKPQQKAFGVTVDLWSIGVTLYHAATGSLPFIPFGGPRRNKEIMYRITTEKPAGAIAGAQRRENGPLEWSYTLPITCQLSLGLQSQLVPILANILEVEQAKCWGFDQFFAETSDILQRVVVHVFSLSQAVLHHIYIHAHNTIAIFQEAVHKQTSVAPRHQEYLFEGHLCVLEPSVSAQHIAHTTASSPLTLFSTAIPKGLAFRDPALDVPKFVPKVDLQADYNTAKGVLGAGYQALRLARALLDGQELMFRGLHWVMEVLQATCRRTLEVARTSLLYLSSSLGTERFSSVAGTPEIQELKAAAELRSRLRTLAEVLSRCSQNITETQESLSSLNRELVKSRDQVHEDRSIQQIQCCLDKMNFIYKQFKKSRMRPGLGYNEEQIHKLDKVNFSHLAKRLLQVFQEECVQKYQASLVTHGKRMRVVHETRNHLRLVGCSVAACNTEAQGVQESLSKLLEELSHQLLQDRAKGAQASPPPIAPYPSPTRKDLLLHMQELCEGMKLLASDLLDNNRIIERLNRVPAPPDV
The assay is described as follows: In-vitro IKKε kinase assay ([γ33]ATP filter-plate). It is filed as biochemical. Summed up: as §1

[2] abbreviates: text bins, read-out: IC50 for inhibition of the kinase activity of TBK1.
Setting [3] is: HEK293T cells, 20 hours, text bins, read-out: IC50 for inhibition of the in-situ IKKε-mediated phosphorylation of IRF3.
[4] abbreviates: text bins, read-out: IC50 for inhibition of the kinase activity of IKKε.
Setting [5] is: HEK293T cells in culture, Table 3, read-out: pIRF3 ELISA IC50.

For the molecule `COc1cc(Nc2nccc(-c3ccc(OC4CCOCC4)c(C#N)c3)n2)ccc1OCCOCCNS(C)(=O)=O` [Example 22], the 50% inhibitory concentration (IC50) on TBK1 (setting [2]) was below 10 nM; in assay [1] (setting [3]), below 100 nM; on IKKε (setting [4]), below 5 nM.

For `COc1cc(Nc2nccc(-c3ccc(OC4CCOCC4)c(C#N)c3)n2)ccc1OCCCS(=O)(=O)N1CCN(C)CC1` [Example 25, 5-{2-[(3-methoxy-4-{3-[(4-methylpiperazin-1-yl)sulfonyl]propoxy}phenyl)amino]pyrimidin-4-yl}-2-(tetrahydro-2H-pyran-4-yloxy)benzonitrile], the values for the IC50 (at TBK1 (setting [2]); in assay [1] (setting [3]); on IKKε (setting [4])) were below 10 nM, 100 to 250 nM and below 5 nM, respectively.

Consider `COc1cc(Nc2nccc(-c3ccc(OC4CCOCC4)c(C#N)c3)n2)ccc1OCCOCCNS(=O)(=O)N1CCN(C)CC1` [Example 27, N-(2-{2-[4-({4-[3-cyano-4-(tetrahydro-2H-pyran-4-yloxy)phenyl]pyrimidin-2-yl}amino)-2-methoxyphenoxy]ethoxy}ethyl)-4-methylpiperazine-1-sulfonamide], for which the concentration for half-maximal inhibition (IC50) on TBK1 (setting [2]) was below 10 nM; in assay [1] (setting [3]), 250 to 500 nM; on IKKε (setting [4]), below 5 nM.

For `COc1cc(Nc2nccc(-c3ccc(OC4CCOCC4)c(C#N)c3)n2)ccc1OCCN` [Example 30, 5-(2-{[4-(2-aminoethoxy)-3-methoxyphenyl]amino}pyrimidin-4-yl)-2-(tetrahydro-2H-pyran-4-yloxy)benzonitrile], the values for the concentration for half-maximal inhibition (IC50) (at TBK1 (setting [2]); in assay [1] (setting [3]); at IKKε (setting [4])) were below 10 nM, 250 to 500 nM and below 5 nM, respectively.

Consider `COc1cc(Nc2nccc(-c3ccc(OC4CCOCC4)c(C#N)c3)n2)ccc1OCCCN1CCOCC1` [Example 31, 5-[2-({3-methoxy-4-[3-(morpholin-4-tl)propoxy]phenyl}amino)pyrimidin-4-yl]-2-(tetrahydro-2H-pyran-4-yloxy)benzonitrile], for which the values for the IC50 (on TBK1 (setting [2]); in assay [1] (setting [3]); at IKKε (setting [4])) were below 10 nM, below 100 nM and below 5 nM, respectively.

Take `COc1ccc(Nc2nccc(-c3ccc(OC4CCOCC4)c(C#N)c3)n2)cc1OCCOCCN` [Example 32, 5-[2-({3-[2-(2-aminoethoxy)ethoxy]-4-methoxyphenyl}amino)pyrimidin-4-yl]-2-(tetrahydro-2H-pyran-4-yloxy)benzonitrile]: the 50% inhibitory concentration (IC50) is below 10 nM at TBK1 (setting [2]), 100 to 250 nM in assay [1] (setting [3]) and below 5 nM at IKKε (setting [4]).

As for `C[C@H](O)C(=O)N1CCC(Oc2ccc(-c3ccnc(Nc4ccc(C(=O)N5CCN(C)CC5)cc4)n3)cc2C#N)CC1` [Example 35, 2-({1-[(2S)-2-hydroxypropanoyl]piperidin-4-yl}oxy)-5-[2-({4-[(4-methylpierazin-1-yl)carbonyl]phenyl}amino)pyrimidin-4-yl]benzonitrile], the IC50 at TBK1 (setting [2]) was below 10 nM; in assay [1] (setting [3]), 250 to 500 nM; on IKKε (setting [4]) it was below 5 nM.

For `COc1cc(Nc2nccc(-c3ccc(OC4CCN(C(=O)CO)CC4)c(C#N)c3)n2)ccc1N1CCOCC1` [Example 59, 2-{[1-(hydroxyacetyl)piperidin-4-yl]oxy}-5-(2-{[3-methoxy-4-(morpholin-4-yl)phenyl]amino}pyrimidin-4-yl)benzonitrile], the half-inhibitory concentration (IC50) at TBK1 (Table 3, read-out: TBK1 IC50) is 0.4 nM; on TBK1 (setting [2]), below 10 nM; in assay [1] (setting [5]), 16.2 nM; in assay [1] (setting [3]) it was below 100 nM; on IKKε (Table 3, read-out: IKKε IC50), 0.2 nM; on IKKε (setting [4]), below 5 nM.

For the molecule `N#Cc1cc(-c2ccnc(Nc3ccc(N4CCOCC4)cc3)n2)ccc1NCc1ccccn1` [Example 64, 5-(2-{[4-(Morpholin-4-yl)phenyl]amino}pyrimidin-4-yl)-2-[(pyridin-2-ylmethyl)amino] benzonitrile], the values for the concentration for half-maximal inhibition (IC50) (on TBK1 (setting [2]); in assay [1] (setting [3]); on IKKε (setting [4])) were below 10 nM, 250 to 500 nM and 5 to 50 nM, respectively.

Turning to `N#Cc1cc(-c2ccnc(Nc3ccc(N4CCOCC4)cc3)n2)ccc1OCC1CCNCC1` [Example 72, 5-(2-{[4-(morpholin-4-yl)phenyl]amino}pyrimidin-4-yl)-2-(piperidin-4-ylmethoxy) benzonitrile], the concentration for half-maximal inhibition (IC50) on TBK1 (setting [2]) was 10 to 100 nM; in assay [1] (setting [3]), 250 to 500 nM; at IKKε (setting [4]) it was below 5 nM.

Take `COc1cc(Nc2nccc(-c3ccc(OC4CCOCC4)c(C#N)c3)n2)ccc1N1CCOCC1` [Example 73, 5-(2-{[3-methoxy-4-(morpholin-4-yl)phenyl]amino}pyrimidin-4-yl)-2-(tetrahydro-2H-pyran-4-yloxy)benzonitrile]: the IC50 was below 10 nM at TBK1 (setting [2]), below 100 nM in assay [1] (setting [3]) and below 5 nM on IKKε (setting [4]).

Turning to `COc1cc(Nc2nccc(-c3ccc(NC(=O)C(C)C)c(C#N)c3)n2)ccc1N1CCOCC1` [Example 75, N-[2-cyano-4-(2-{[3-methoxy-4-(morpholin-4-yl)phenyl]amino}pyrimidin-4-yl)phenyl]-2-methylpropanamide], the IC50 was below 10 nM at TBK1 (setting [2]), 250 to 500 nM in assay [1] (setting [3]) and below 5 nM at IKKε (setting [4]).

Take `COc1cc(Nc2nccc(-c3ccc(OC4CCOCC4)c(C#N)c3)n2)ccc1S(=O)(=O)NCCCn1ccnc1` [Example 83, 4-({4-[3-cyano-4-(tetrahydro-2H-pyran-4-yloxy)phenyl]pyrimidin-2-yl}amino)-N-[3-(1H-imidazol-1-yl)propyl]-2-methoxybenzene-sulfonamide]: the IC50 is below 10 nM at TBK1 (setting [2]), 100 to 250 nM in assay [1] (setting [3]) and below 5 nM on IKKε (setting [4]).

With `N#Cc1cc(-c2ccnc(Nc3ccc(N4CCOCC4)cc3)n2)ccc1NC(=O)CC(F)(F)F` [Example 93, N-[2-cyano-4-(2-{[4-(morpholin-4-yl)phenyl]amino}pyrimidin-4-yl)phenyl]-3,3,3-trifluoropropanamide], the concentration for half-maximal inhibition (IC50) at TBK1 (Table 3, read-out: TBK1 IC50) was 0.3 nM; at TBK1 (setting [2]), below 10 nM; in assay [1] (setting [5]), 139 nM; in assay [1] (setting [3]), 100 to 250 nM; at IKKε (Table 3, read-out: IKKε IC50) it was 0.7 nM; on IKKε (setting [4]) it was below 5 nM.

Turning to `COc1cc(Nc2nccc(-c3ccc(OC4CCOCC4)c(C#N)c3)n2)ccc1C(=O)NCCCN(C)C` [Example 103, 4-({4-[3-cyano-4-(tetrahydro-2H-pyran-4-yloxy)phenyl]pyrimidin-2-yl}amino)-N-[3-(dimethylamino)propyl]-2-methoxybenzamide], the concentration for half-maximal inhibition (IC50) on TBK1 (setting [2]) was below 10 nM; in assay [1] (setting [3]), 250 to 500 nM; at IKKε (setting [4]), below 5 nM.

Regarding `COc1cc(Nc2nccc(-c3ccc(OC4CCOCC4)c(C#N)c3)n2)ccc1S(=O)(=O)N1CCN(C)CC1` [Example 114, 5-[2-({3-methoxy-4-[(4-methylpiperazin-1-yl)sulfonyl]phenyl}amino)pyrimidin-4-yl]-2-(tetrahydro-2H-pyran-4-yloxy)benzonitrile], the IC50 at TBK1 (setting [2]) was below 10 nM; in assay [1] (setting [3]), below 100 nM; at IKKε (setting [4]) it was below 5 nM.

Turning to `COc1ccc(Nc2nccc(-c3ccc(OC4CCOCC4)c(C#N)c3)n2)cc1OCC(N)=O` [Example 132, 2-[5-({4-[3-cyano-4-(tetrahydro-2H-pyran-4-yloxy)phenyl]pyrimidin-2-yl}amino)-2-methoxyphenoxy] acetamide], the 50% inhibitory concentration (IC50) at TBK1 (setting [2]) was below 10 nM; in assay [1] (setting [3]) it was 250 to 500 nM; on IKKε (setting [4]), below 5 nM.
